Assay results taken from article PMC12064818, “A general assay platform to study protein pharmacology using ligand-dependent structural dynamics” (Nature Communications, 2025).

Molecular target: T1, Nano luciferase (NLuc) (Oplophorus gracilirostris, UniProt Q9GV45, A31E/A60N/A81I/F95D/I117V/K70R/L54V/L99Q/M102K/N193R/P142E/Q151K/Q38R/Q45L/V71I/Y165I)
T1 construct: His tag (inferred from IMAC purification); made in house; host or cells: E. coli
Assay: Thermal shift profiles (Thermofluor assay), NLuc
Format: binding
Set-up: unit of the concentration uncertain
Details: compound 100 (unit uncertain); for Thermofluor NLuc, ATP: ATP (2 mM)
Procedure: Thermal stabilization of proteins in the presence of the ligands were determined using Thermofluor technique. MicroAmp optical 384-well plates (Applied Biosystems by Life Technologies), ViiA 7 real-time PCR instrument (Applied Biosystems by Life Technologies) and SYPRO Orange (Life Technologies) were used to test the samples. […]. Proteins were added to the 384-well plate first followed by the compounds. Samples were incubated for 10 mins at room temperature and protected from light. SYPRO Orange dye was diluted to 50x from 5000x stock in a PBS buffer, and 4 µL dye was added to the each well using a multi-channel pipette. The plate was sealed with a MicroAmp optical adhesive film, centrifuged at 1500 RPM for 2 min, and then loaded onto the ViiA 7 real–time PCR instrument for fluorescence intensity measurements upon heating the sample from 25 to 95 °C at 1 °C/min increments. Data was exported to excel, fluorescence intensity data and its first derivative were normalized and plotted using GraphPad Prism to determine Tm. See Supplementary Table 3 for additional details.
Supplementary Figure 6. Comparison of SDR and Thermofluor analysis of […]
Temperature °C Temperature °C […]
Supplementary Table 3. Protocol for Thermofluor assay
Supplementary Table 3: Protocol for Therm ofluor assay
Sequence Param eter Value Description […]
3 Incubation 10 m ins Room tem perature, protected from light
4 Dye 10X Sypro Orange dye in PBS added to the sam ple
5 Centrifugation 2 m in Centrifuge for 2 m in at 1500 RPM at RT
6 Read ViiA7 Read the therm al unfolding of the protein with ViiA7 real-tim e PCR system
4 Prepare 50X dye in PBS: 1 μL Sypro Orange 5000X (Life Technologies), 99 μL ddH2O. Add 4 μL to each well Read the m elting tem perature from 25 to 95 °C using ViiA 7 real tim e PCR instrum ent by following the below instructions Perform therm al denaturation in 384-well assay plate
(i) Place the assay plate into the Applied Biosystem s ViiA7 real-tim e PCR instrum ent and open the ViiA7 RUO software.
Under Experim ental Properties, select the following param eters: Set up: […] (20 μl), Experim ent type: MELT CURVE, Reagents used to detect target sequence: OTHER, Ram p Speed: […]
(ii) Select the Define tab on the left, then select the following param eters: Target nam e: TARGET 1, Reporter: ROX, 6 Quencher: NONE, Passive Reference: NONE
(iii) Select the Assign tab on the left, then perform the following actions: Highlight all 384 wells in the assay plate and check the box next to ‘Target 1’ on the top left of the plate layout. Note: check the ‘Sam ple’ box on the lower left.
(iv) Select the Run Method tab on the left, then m ake the following changes to the default Melt Curve profile: Delete Step 2 of the default cycle, change run m ethod to “Step and Hold” with a 1:00 tim e, set the following tem peratures: an initial 2:00 hold at 25 °C (4 °C), ram ping up in increm ents of 1 ° C to a final tem perature of 95 °C (with a 2:00 hold), click on all three cam eras to activate fluorescence detection throughout the experim ent, and Select total volum e per well of 20 μl
(v) Click on the RUN tab to the left to initiate therm al denaturation.

T1 sequence (Q9GV45 other isoform, or with tags, fused parts or gaps with the stated changes): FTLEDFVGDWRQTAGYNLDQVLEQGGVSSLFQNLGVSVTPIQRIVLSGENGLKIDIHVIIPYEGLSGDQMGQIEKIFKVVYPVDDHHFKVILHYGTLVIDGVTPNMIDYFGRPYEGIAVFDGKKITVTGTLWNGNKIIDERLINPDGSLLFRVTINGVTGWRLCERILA

## COc1ccc(NC(=O)C2CCN(C(=O)c3ncn4c3COC(c3ccccc3)C4)CC2)cc1Cl (stereo not drawn) [NCGC 00449919]
20.000 °C
  Thermofluor NLuc, No ATP: 1
  Thermofluor NLuc, ATP: 0.908
20.993 °C
  Thermofluor NLuc, No ATP: 0.737
  Thermofluor NLuc, ATP: 0.958
21.987 °C
  Thermofluor NLuc, No ATP: 0.665
  Thermofluor NLuc, ATP: 0.992
22.980 °C
  Thermofluor NLuc, No ATP: 0.636
  Thermofluor NLuc, ATP: 1
23.974 °C
  Thermofluor NLuc, No ATP: 0.59
  Thermofluor NLuc, ATP: 0.981
24.967 °C
  Thermofluor NLuc, No ATP: 0.577
  Thermofluor NLuc, ATP: 0.945
25.960 °C
  Thermofluor NLuc, No ATP: 0.551
  Thermofluor NLuc, ATP: 0.901
26.954 °C
  Thermofluor NLuc, No ATP: 0.532
  Thermofluor NLuc, ATP: 0.858
27.947 °C
  Thermofluor NLuc, No ATP: 0.492
  Thermofluor NLuc, ATP: 0.821
28.940 °C
  Thermofluor NLuc, No ATP: 0.484
  Thermofluor NLuc, ATP: 0.79
29.934 °C
  Thermofluor NLuc, No ATP: 0.475
  Thermofluor NLuc, ATP: 0.766
30.927 °C
  Thermofluor NLuc, No ATP: 0.424
  Thermofluor NLuc, ATP: 0.748
31.921 °C
  Thermofluor NLuc, No ATP: 0.447
  Thermofluor NLuc, ATP: 0.735
32.914 °C
  Thermofluor NLuc, No ATP: 0.416
  Thermofluor NLuc, ATP: 0.726
33.907 °C
  Thermofluor NLuc, No ATP: 0.402
  Thermofluor NLuc, ATP: 0.72
34.901 °C
  Thermofluor NLuc, No ATP: 0.393
  Thermofluor NLuc, ATP: 0.716
35.894 °C
  Thermofluor NLuc, No ATP: 0.367
  Thermofluor NLuc, ATP: 0.71
36.887 °C
  Thermofluor NLuc, No ATP: 0.355
  Thermofluor NLuc, ATP: 0.703
37.881 °C
  Thermofluor NLuc, No ATP: 0.332
  Thermofluor NLuc, ATP: 0.693
38.874 °C
  Thermofluor NLuc, No ATP: 0.332
  Thermofluor NLuc, ATP: 0.683
39.868 °C
  Thermofluor NLuc, No ATP: 0.308
  Thermofluor NLuc, ATP: 0.672
40.861 °C
  Thermofluor NLuc, No ATP: 0.311
  Thermofluor NLuc, ATP: 0.661
41.854 °C
  Thermofluor NLuc, No ATP: 0.286
  Thermofluor NLuc, ATP: 0.65
42.848 °C
  Thermofluor NLuc, No ATP: 0.281
  Thermofluor NLuc, ATP: 0.638
43.841 °C
  Thermofluor NLuc, No ATP: 0.279
  Thermofluor NLuc, ATP: 0.624
44.835 °C
  Thermofluor NLuc, No ATP: 0.247
  Thermofluor NLuc, ATP: 0.61
45.828 °C
  Thermofluor NLuc, No ATP: 0.259
  Thermofluor NLuc, ATP: 0.594
46.821 °C
  Thermofluor NLuc, No ATP: 0.247
  Thermofluor NLuc, ATP: 0.579
47.815 °C
  Thermofluor NLuc, No ATP: 0.245
  Thermofluor NLuc, ATP: 0.563
48.808 °C
  Thermofluor NLuc, No ATP: 0.238
  Thermofluor NLuc, ATP: 0.547
50.795 °C
  Thermofluor NLuc, No ATP: 0.24
  Thermofluor NLuc, ATP: 0.504
51.788 °C
  Thermofluor NLuc, No ATP: 0.229
  Thermofluor NLuc, ATP: 0.47
52.782 °C
  Thermofluor NLuc, No ATP: 0.227
  Thermofluor NLuc, ATP: 0.422
53.775 °C
  Thermofluor NLuc, No ATP: 0.227
  Thermofluor NLuc, ATP: 0.36
54.768 °C
  Thermofluor NLuc, No ATP: 0.248
  Thermofluor NLuc, ATP: 0.285
55.762 °C
  Thermofluor NLuc, No ATP: 0.239
  Thermofluor NLuc, ATP: 0.202
56.755 °C
  Thermofluor NLuc, No ATP: 0.264
  Thermofluor NLuc, ATP: 0.122
57.748 °C
  Thermofluor NLuc, No ATP: 0.317
  Thermofluor NLuc, ATP: 0.055
58.742 °C
  Thermofluor NLuc, No ATP: 0.38
  Thermofluor NLuc, ATP: 0.012
59.735 °C
  Thermofluor NLuc, No ATP: 0.412
  Thermofluor NLuc, ATP: 0
60.729 °C
  Thermofluor NLuc, No ATP: 0.472
  Thermofluor NLuc, ATP: 0.021
61.722 °C
  Thermofluor NLuc, No ATP: 0.524
  Thermofluor NLuc, ATP: 0.072
62.715 °C
  Thermofluor NLuc, No ATP: 0.52
  Thermofluor NLuc, ATP: 0.145
63.709 °C
  Thermofluor NLuc, No ATP: 0.568
  Thermofluor NLuc, ATP: 0.233
65.695 °C
  Thermofluor NLuc, No ATP: 0.566
  Thermofluor NLuc, ATP: 0.416
66.689 °C
  Thermofluor NLuc, No ATP: 0.551
  Thermofluor NLuc, ATP: 0.499
68.676 °C
  Thermofluor NLuc, No ATP: 0.541
  Thermofluor NLuc, ATP: 0.632
69.669 °C
  Thermofluor NLuc, No ATP: 0.515
  Thermofluor NLuc, ATP: 0.682
70.662 °C
  Thermofluor NLuc, No ATP: 0.497
  Thermofluor NLuc, ATP: 0.723
71.656 °C
  Thermofluor NLuc, No ATP: 0.488
  Thermofluor NLuc, ATP: 0.755
72.649 °C
  Thermofluor NLuc, No ATP: 0.477
  Thermofluor NLuc, ATP: 0.781
73.643 °C
  Thermofluor NLuc, No ATP: 0.428
  Thermofluor NLuc, ATP: 0.8
74.636 °C
  Thermofluor NLuc, No ATP: 0.405
  Thermofluor NLuc, ATP: 0.812
75.629 °C
  Thermofluor NLuc, No ATP: 0.392
  Thermofluor NLuc, ATP: 0.819
